Consider 4 substances from patent US7569537B2, “Peptide antagonists for inhibiting heat shock protein (Hsp 16.3) of Mycobacterium tuberculosis” (priority 2004, dated 2009).

The target in assay [1] is T1, Hsp16.3 (Mycobacterium tuberculosis, UniProt P9WMK1). Description: ADH heat aggregation assay for inhibition of Hsp16.3 chaperon activity. In kind it is biochemical. As to the method: FIG. 2. […] Aggregation assays were performed by heating 5 μM Alcohol dehydrogenase (ADH) to 50° C. directly in a spectrophotometer using a thermostated cuvette holder in a total reaction volume of 500 μl. Optical density was monitored at 360 nm for 1200 seconds and readings were taken at every 100 seconds interval. […] Then the same experiment was performed in the presence of increasing concentrations of the Hsp16.3 binding peptide Seq IDs 10. Aggregation of ADH in the absence of Hsp 16.3 (black triangle). Aggregation in the presence of Hsp 16.3 (black circle). The same experiment when performed in the presence of increasing concentrations of the Hsp 16.3 binding peptide (Seq ID 10) 25 μM (white square), 50 μM (black square), 100 μM (white triangle). Only peptide control (ADH+100 μM peptide) (white circle).
T1 sequence (P9WMK1 whole entry, looked up): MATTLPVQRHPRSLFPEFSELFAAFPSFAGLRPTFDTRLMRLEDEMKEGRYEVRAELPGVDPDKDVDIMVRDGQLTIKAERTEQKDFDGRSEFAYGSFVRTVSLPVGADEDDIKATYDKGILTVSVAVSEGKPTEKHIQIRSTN
The binding of a peptide need not necessarily result in inhibition. Inhibition will happen only if binding leads to significant changes in the active site. […] A part of the invention is the development of a peptide inhibition assay for Hsp16.3. The method is based on aggregation based assays. The standard assay used for assaying the activity of alpha-crystallin like proteins is to study the protection it confers against heat induced aggregation of proteins, the aggregation activity being measured spectrophotometrically. […] Aggregation of 5 μM ADH at 50° C. can be measured as an apparent optical density at 360 nm using a spectrophotometer equipped with a thermostated cuvette holder in a total reaction volume of 500 μl. The chaperon activity of Hsp16.3 can be determined by mixing ADH with Hsp16.3 at a molar ratio of 5:4 which is equivalent to a ratio of about 12:1 between ADH and Hsp16.3 assuming a nonameric structure of Hsp16.3 as the functional unit (Chang et al., 1996) and aggregation rates again determined spectrophotometrically. […]
A part of the invention is the peptide inhibition assay for Hsp16.3 comprising of heat treating ADH alone, ADH+Hsp16.3 and ADH+Hsp16.3+25, 50 and 100 μM peptide. […] Aggregation of 5 μM ADH at 50° C. was measured as an apparent optical density at 360 nm using Hitachi spectrophotometer equipped with a thermostated cuvette holder in a total reaction volume of 500 μl. The chaperon activity of Hsp16.3 was determined by mixing ADH with Hsp16.3 at a molar ratio of 5:4 and aggregation rates were again determined spectrophotometrically. […]
Aggregation assays were performed by heating 5 μM Alcohol dehydrogenase (ADH) to 50° C. directly in a spectrophotometer using a thermostated cuvette holder in a total reaction volume of 500 μl. Absorbance was monitored at 360 nm (A360) for 1200 seconds and readings were taken at every 100 seconds interval. […] The increase in absorbance indicates aggregation of ADH. […]

A further assay addresses T2, human alphaB-crystallin (Homo sapiens, UniProt P02511).
T2 construct: made in house
T2 sequence (P02511 1-175): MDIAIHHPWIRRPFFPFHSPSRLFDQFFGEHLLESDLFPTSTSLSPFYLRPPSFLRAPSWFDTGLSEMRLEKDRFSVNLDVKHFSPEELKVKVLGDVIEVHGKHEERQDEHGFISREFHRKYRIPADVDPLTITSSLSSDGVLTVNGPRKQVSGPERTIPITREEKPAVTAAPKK
The experiment in a line: ADH heat aggregation assay with alphaB-crystallin instead of Hsp16.3. In kind it is biochemical. The following applies: 25, 50 and 100 μM peptide, ADH:alphaB-crystallin 5:4. How it is done:
FIG. 3. An example to show the specificity of the inhibitory peptides for Hsp16.3 and not for alphaB-crystallin—a component of human eye lens. A similar assay as described in FIG. 2 was performed using alphaB-crystalline instead of Hsp16.3. The molar ratio between ADH and alphaB-crystallin was maintained 5:4 as in the case of Hsp 16.3. Aggregation in the absence of alphaB-crystallin (black triangle). Aggregation in the presence of alphaB-crystalline (black circle). The same experiment was performed in the presence of increasing concentrations of the Hsp16.3 binding peptide (Seq ID 10) 25 μM (white square), 50 μM (black square), 100 μM (white triangle). Only peptide control (ADH+100 μM peptide) (white circle).
ADH upon being heated to 50° C. aggregates. This aggregation can be completely stopped when Hsp16.3 is added in such a way so as to obtain a molar ratio of ADH to Hsp 16.3 monomer of about 5:4. Incorporation of peptide at a concentration of 100 μM i.e. about 25 fold molar excess leads to significant inhibition of chaperon activity. […] Since it has been shown that Hsp16.3 has functional similarity with human alphaB-crystallin, an eye lens protein (Valdez et al., 2002), therefore the effect of these peptides on human alphaB-crystallin was examined. […] The vector used for expression of this protein was originally generated by Dr. W. C. […]

Assay [2] has as its target T1, Hsp16.3. Description: NMR (TOCSY) amide proton chemical shifts of peptide free and with Hsp16.3. The assay is classed as binding. As to conditions: 0.1 mM protein, 2 mM peptide, pH 7.0, 4 °C. How it is done:
FIG. 5. Comparison of chemical shifts of amide protons of free peptide (Seq ID 10) (a) and peptide with Hsp16.3 protein (b). Resonance assignments are indicated with a one-letter amino acid code. All NMR spectra were taken in a Bruker DRX-500 spectrometer equipped with a Z-field gradient probe. All measurements were done in high precision 5-mm NMR tubes in 20 mM sodium phosphate buffer, pH 7.0, containing 250 mM NaCl in 90% H2O and 10% D2O at 4° C. TOCSY spectra were measured using standard pulse sequences in the Bruker pulse library using WATERGATE water suppression method. Standard Bruker software (Xwin-NMR version 1.3) was used to acquire and process the NMR data. The NMR samples were adjusted to a protein concentration of 0.1 mM and a 20-fold ligand excess (2 mM) over binding sites was used throughout the studies.
An important aspect of inhibitor development procedures is to understand the nature of interactions between the inhibitor and its target. […] As a part of this disclosure it is shown that histidine residues in one of the two peptide inhibitors namely Seq ID 10 interact with Hsp16.3 as determined by NMR.
All NMR spectra were taken in a Bruker DRX-500 NMR spectrometer equipped with a Z-field gradient probe. […] TOCSY spectra were measured using standard pulse sequences in the Bruker pulse library using WATERGATE water suppression method. […]

The target of assay [3] is T1, Hsp16.3. The following applies: reverse phage ELISA, A405, 30 μg/well Hsp16.3 or BSA. (In general: ELISA stands for enzyme-linked immunosorbent assay.)

No end group written: not given here.

For the substance H-YPHHFKHRHIPIGGGS-NH2 [Seq ID 22], on Hsp16.3 [1], the IC50 is around 50 µM.
Consider H-KMHATNHGGGS-NH2 [Seq ID 10], for which the “inhibition of chaperon activity of alphaB-crystallin (in words)” value on human alphaB-crystallin is on record as “no inhibition”. Further, the “chemical shift change of peptide amide protons on addition of Hsp16.3” value on Hsp16.3 [2] was “significant chemical shift occured in both histidines”. The half-maximal inhibitory concentration (IC50) at Hsp16.3 [1] was around 50 µM. Moreover, the “inhibition of chaperon activity of Hsp16.3 (in words)” value against Hsp16.3 [1] (25, 50 and 100 μM peptide) is given as “dose dependent inhibition”. In addition, the “effect of peptide alone on aggregation of ADH (control without Hsp16.3)” value at Hsp16.3 [1] (ADH + 100 μM peptide, no Hsp16.3) is on record as “does not influence the aggregation of ADH”.
Consider YPHHFKHRHIPI [Seq ID 21], for which, at Hsp16.3 [3], the “binding of phage clone to Hsp16.3 compared to non-specific control BSA (background binding)” value is reported as “about three-fold”.
On the same count and under the same terms, with KMHATNH [Seq ID 9] the entry was “about three-fold”.

In general, IC50 refers to the point on the concentration scale where inhibition reaches its midpoint. High values mean a need for much substance, low ones inhibition by little substance.
